Assay results: patent US7973219B2, “Method for producing transgenic plants resistant to weed control compounds which disrupt the porphyrin pathways of plants” (Sumitomo Chemical Company, Limited, priority 1998, dated 2011)
Like-named read-outs stand apart in the source and are kept apart here.

Experiments:
[1] = system: control recombinant tobacco; assay: Leaf piece chlorophyll test, control recombinant tobacco; format: in vivo; conditions: Nicotiana tabacum, read-out: Resistant level to test compound; for activity at 0.3 ppm: 0.30 ppm
Experimental: (§1) Then, according to the method described in Manual for Gene Manipulation of Plant (by Hirofumi UCHIMIYA, Kodan-sha Scientific, 1992), the gene was introduced into tobacco. Agrobacterium strain bearing plasmid pBIBCH was cultured at 28° C. overnight in LB medium and then leaf pieces of tobacco cultured sterilely were dipped in the liquid culture medium. The leaf pieces were cultured at room temperature for 2 days in Murashige-Skoog medium (MS-medium, described in Murasige T. and Skoog F., Physiol. Plant. (1962) 15, p 473) containing 0.8% agar, 0.1 mg/liter naphthalene acetic acid and 1.0 mg/liter benzyl aminopurine. Then, the leaf pieces were washed with sterilized water and cultured for 7 days on MS medium containing 0.8% agar, 0.1 mg/liter naphthalene acetic acid, 1.0 mg/liter benzyl aminopurine and 500 μg/ml cefotaxime. The leaf pieces were transplanted onto MS medium containing 0.8% agar, 0.1 mg/liter naphthalene acetic acid, 1.0 mg/liter benzyl aminopurine, 500 μg/ml cefotaxime and 100 μg/ml kanamycin (hereinafter referred to as selective MS medium) and cultured on the medium continuously for 4months with transplanting the tobacco leaf pieces onto fresh selective MS medium every 1 month. During culture, stem-leaf differentiated shoots were appeared from the tobacco leaf pieces, these shoots were transplanted to MS medium containing 0.8% agar, 300 μg/ml cefotaxime and 50 μg/ml kanamycin to induce roots to obtain regenerated plants. The resultant regenerated plant was transplanted and cultured on MS medium 0.8% agar and 50 μg/ml kanamycin to obtain tobacco plant into which bchH gene was introduced. Similarly, tobacco leaf pieces were infected with Agrobacterium strain bearing pNO to obtain regenerated plant from the tobacco leaf pieces and tobacco plant (hereinafter referred to as control recombinant tobacco).
(§2) The tobacco leaves into which bchH gene was introduced and control recombinant tobacco leaves obtained in Example 5 were collected and each leaf was divided into the right and left equivalent pieces along the main vein, respectively. To one piece was applied an aqueous solution containing 0.3 ppm PPO inhibitory-type herbicidal compound of Structure 8, while, to the other piece was not applied the compound. These leaf pieces were placed on MS medium containing 0.8% agar and allowed to stand at room temperature for 7 days in light place. Then, each leaf piece was ground with pestle and mortar in 5 ml of 80% aqueous acetone solution to extract chlorophyll. The extract liquid was diluted with 80% aqueous acetone solution and the absorbance was measured at 750 nm, 663 nm and 645 nm to calculate total chlorophyll content according to the method described by Macknney G., J. Biol. Chem. (1941) 140, p 315. The results obtained from 4 clones of tobacco into which bchH gene was introduced (BCH1 to 4) and control recombinant tobacco is shown in Table 4. In the table, the resistant level to the herbicidal compound was represented by percentages of the total chlorophyll content of leaf pieces treated with herbicidal compound to that of untreated leaf pieces.
(§3) The tobacco clone into which bchH gene was introduced and control recombinant tobacco were also treated in the same manner with the solution containing PPO inhibitory-type herbicidal compound represented by the above Structure 3, 7, 10, 11, 13, 17, 23, 24, 25, 27, 28, 30 or 35, and the resistant level to each herbicidal compound was measured. In the table, the resistant levels to the herbicidal compound were represented by percentages of the total chlorophyll content of leaf pieces treated with the herbicidal compound to that of untreated leaf pieces.
The level of resistance to PPO inhibitory type herbicidal compound represented by Structure 8 was confirmed quantitatively by testing tobacco into which the gene encoding the variant soybean PPO prepared in Example 13 was introduced according to the same manner as in Example 6. […]

[2] = system: tobacco into which bchH gene was introduced; assay: Leaf piece chlorophyll test, tobacco into which bchH gene was introduced; format: in vivo; conditions: Nicotiana tabacum, read-out: Resistant level to test compound; for activity at 0.3 ppm: 0.30 ppm
Experimental: as §1, §2, §3

[3] = control recombinant tobacco, treated vs untreated leaf pieces, Table 5
[4] = bchH recombinant tobacco, treated vs untreated leaf pieces, Table 5

Compound | activity at 10 ppm [1, 3] [%] | activity at 10 ppm [2, 4] [%] | activity at 0.3 ppm [1, 3] [%] | activity at 0.3 ppm [2, 4] [%] | further results
CCOC(=O)C(C)OC(=O)c1cc(Oc2ccc(C(F)(F)F)cc2Cl)ccc1[N+](=O)[O-] (stereo not drawn) [Structure 3] | 9.94 | 114 | – | – | –
O=[N+]([O-])c1ccc(Oc2c(Cl)cc(Cl)cc2Cl)cc1 [Structure 7] | – | – | – | – | activity at 30 ppm ([1]; control recombinant tobacco, 30 ppm, treated vs untreated leaf pieces, Table 5): 8.62%; activity at 30 ppm ([2]; bchH recombinant tobacco, 30 ppm, treated vs untreated leaf pieces, Table 5): 89.3%
CCCCCOC(=O)COc1cc(N2C(=O)C3=C(CCCC3)C2=O)c(F)cc1Cl [Structure 10] | 14.9 | 84 | – | – | –
C#CCN1C(=O)COc2cc(F)c(N3C(=O)C4=C(CCCC4)C3=O)cc21 [Structure 11] | – | – | 5.51 | 78.1 | –
C#CCN1C(=O)COc2cc(F)c(-n3c(=O)cc(C(F)(F)F)n(C)c3=O)cc21 [Structure 17] | – | – | 14.3 | 80.4 | –
C#CCOc1cc(-n2nc3n(c2=O)CCCC3)c(Cl)cc1Cl [Structure 23] | – | – | – | – | activity at 3 ppm ([1]; control recombinant tobacco, 3.0 ppm, treated vs untreated leaf pieces, Table 5): 5.58%; activity at 3 ppm ([2]; bchH recombinant tobacco, 3.0 ppm, treated vs untreated leaf pieces, Table 5): 106%
C#CCOc1cc(-n2nc(C(C)(C)C)oc2=O)c(Cl)cc1Cl [Structure 24] | 5.18 | 129 | – | – | –
CC(C)Oc1cc(-n2nc(C(C)(C)C)oc2=O)c(Cl)cc1Cl [Structure 25] | 16 | 104 | – | – | –
CCOC(=O)COc1cc(-n2ncc(C(F)(F)F)c(C)c2=O)c(F)cc1Cl [Structure 27] | 16.8 | 86.8 | – | – | –
C#CCOc1cc(-n2ncc(C(F)(F)F)c(C)c2=O)c(F)cc1Cl [Structure 28] | – | – | 8.79 | 72.2 | –
CCOC(=O)COc1cc(-c2nn(C)c(OC(F)F)c2Cl)c(F)cc1Cl [Structure 30] | – | – | – | – | activity at 3 ppm [1]: 4.24%; activity at 3 ppm [2]: 102%
C#CCN1C(=O)COc2cc(F)c(-c3cnc(C(F)(F)F)n(C)c3=O)cc21 [Structure 35] | – | – | 17.4 | 83.3 | –
